Experimental data: patent US7893074B2, “2, 4-pyrimidinediamines useful in the treatment of neoplastic diseases, inflammatory and immune system disorders” (Novartis AG, priority 2003, dated 2011)
pIC50: −log10 of the molar value. Where two headings read alike, the source gives them in different places.

Columns and labels:
[1] = biological target: FAK (Mus musculus, UniProt P34152); assay: Phos IC50 (phosphorylation); format: cell-based
[2] = tested on: T Cell; assay: T Cell Migration; format: cell-based
[3] = biological target: Focal Adhesion Kinase (FAK) (Homo sapiens, UniProt Q05397); assay: FAK assay system (Focal Adhesion Kinase inhibition); format: biochemical; conditions: read-out: FAK IC50
[4] = tested on: Mouse mammary carcinoma 4T1 cells; assay: Anchorage-independent tumor cell growth assay; format: cell-based
Description: Cells are cultured for 2 h and inhibitors are added at various concentrations in a final concentration of 0.1% DMSO. After 48 h, cell growth is assayed with the cell counting kit-8 (Wako Pure Chemical), which uses a water soluble tetrazolium salt WST8. Twenty μL of the reagent is added into each well and cells are further cultured for 2 h. The optical density is measured at 450 nm.

Sequence of FAK (P34152 2-1052): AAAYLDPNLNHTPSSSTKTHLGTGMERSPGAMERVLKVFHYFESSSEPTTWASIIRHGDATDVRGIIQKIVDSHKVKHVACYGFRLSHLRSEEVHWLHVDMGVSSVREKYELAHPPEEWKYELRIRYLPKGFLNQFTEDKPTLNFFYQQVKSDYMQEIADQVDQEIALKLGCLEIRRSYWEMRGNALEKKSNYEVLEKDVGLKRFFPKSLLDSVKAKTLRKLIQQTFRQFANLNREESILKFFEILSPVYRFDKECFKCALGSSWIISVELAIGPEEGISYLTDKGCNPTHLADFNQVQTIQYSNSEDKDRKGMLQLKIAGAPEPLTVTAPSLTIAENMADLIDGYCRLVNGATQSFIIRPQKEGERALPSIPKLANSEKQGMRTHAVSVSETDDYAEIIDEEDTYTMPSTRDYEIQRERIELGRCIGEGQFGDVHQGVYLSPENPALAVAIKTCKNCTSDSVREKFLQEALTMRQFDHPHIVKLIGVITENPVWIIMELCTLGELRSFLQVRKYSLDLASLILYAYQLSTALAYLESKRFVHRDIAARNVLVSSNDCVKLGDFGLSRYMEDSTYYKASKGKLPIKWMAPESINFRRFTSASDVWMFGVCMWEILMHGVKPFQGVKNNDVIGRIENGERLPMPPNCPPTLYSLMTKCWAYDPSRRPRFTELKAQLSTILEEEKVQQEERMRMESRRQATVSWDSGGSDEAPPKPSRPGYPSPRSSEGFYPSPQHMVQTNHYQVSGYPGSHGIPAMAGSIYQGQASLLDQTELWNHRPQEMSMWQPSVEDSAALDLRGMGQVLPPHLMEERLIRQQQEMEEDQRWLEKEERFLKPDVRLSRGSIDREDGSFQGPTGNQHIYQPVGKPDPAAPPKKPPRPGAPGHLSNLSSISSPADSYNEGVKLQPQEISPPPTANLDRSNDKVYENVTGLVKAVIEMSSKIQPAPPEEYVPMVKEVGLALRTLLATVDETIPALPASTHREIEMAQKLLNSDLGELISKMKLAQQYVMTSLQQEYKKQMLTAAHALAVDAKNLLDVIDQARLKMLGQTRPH
Sequence of Focal Adhesion Kinase (FAK) (Q05397 384-706): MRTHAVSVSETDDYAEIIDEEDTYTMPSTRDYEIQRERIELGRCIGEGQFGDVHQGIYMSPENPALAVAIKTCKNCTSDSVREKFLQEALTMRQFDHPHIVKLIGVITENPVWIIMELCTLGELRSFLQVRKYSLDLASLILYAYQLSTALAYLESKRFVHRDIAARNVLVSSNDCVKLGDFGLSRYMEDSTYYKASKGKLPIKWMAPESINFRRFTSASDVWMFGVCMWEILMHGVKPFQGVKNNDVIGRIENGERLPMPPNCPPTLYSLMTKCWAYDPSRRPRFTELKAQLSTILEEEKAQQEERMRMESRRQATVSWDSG

pIC50 [1] | pIC50 ([2]; T-cell) | pIC50 [3] | pIC50 ([4]; Mus musculus, 4T1) | pIC50 [2] | pIC50 [4] | Structure (SMILES)
5.52 | 6.52 | 7.64 | 6.40 | – | – | CCNC(=O)c1ccccc1Nc1nc(Nc2ccc(OC3CCN(C)CC3)cc2OC)ncc1Cl [Example 9-6]
6.10 | 6.60 | 7.77 | 5.96 | – | – | CNC(=O)c1ccccc1Nc1nc(Nc2cc(N3CCOCC3)ccc2OC)ncc1Cl [Example 7-6]
6.52 | 6.30 | 8.62 | 6.38 | – | – | COc1cc(N2CCC[C@H](C(N)=O)C2)ccc1Nc1ncc(Cl)c(Nc2ccccc2S(=O)(=O)C(C)C)n1 [Example 28-27]
6.40 | 6.00 | 8.28 | 6.28 | – | – | COc1cc(N2CCC[C@@H](C(N)=O)C2)ccc1Nc1ncc(Cl)c(Nc2ccccc2S(=O)(=O)C(C)C)n1 [Example 28-28]
6.40 | 6.30 | 8.36 | 6.11 | – | – | CCCS(=O)(=O)c1ccccc1Nc1nc(Nc2ccc(N3CCN(C(C)=O)C(C)(C)C3)cc2OC)ncc1Cl [Example 26-11]
6.68 | 7.40 | – | 6.33 | – | – | CNC(=O)c1ccccc1Nc1nc(Nc2ccc(N3CCOCC3)cc2OC)ncc1Cl [Example 7A, 2-[5-Chloro-2-(2-methoxy-4-morpholin-4-yl-phenylamino)-pyrimidin-4-ylamino]-N-methyl-benzamide]
7.05 | 6.66 | 8.60 | 6.40 | – | – | COc1cc(N2CCOCC2)ccc1Nc1ncc(Cl)c(Nc2cccc3c2C(=O)N(C)C3)n1 [Example 12-1, 7-[5-Chloro-2-(2-methoxy-4-morpholin-4-yl-phenylamino)-pyrimidin-4-ylamino]-2-methyl-2,3-dihydro-isoindol-1-one]
6.30 | – | 9.00 | – | 6.05 | 6.32 | CCCS(=O)(=O)c1ccccc1Nc1nc(Nc2ccc(N3CCC(N(C)C)C3)cc2OC)ncc1Cl (stereo not drawn) [Example 26-24]
6.44 | 4.31 | 8.30 | 6.85 | – | – | CNS(=O)(=O)c1ccccc1Nc1nc(Nc2ccc(N3CCN(C)CC3)cc2OC)ncc1Cl [Example 20-6]
6.70 | 6.55 | 7.72 | 5.83 | – | – | COc1cc(N2CCOCC2)ccc1Nc1ncc(Cl)c(Nc2ccccc2C(=O)N(C)C)n1 [Example 14-1]
5.70 | 6.00 | 6.72 | 5.96 | – | – | COc1cc(N2CCOCC2)ccc1Nc1ncc(Cl)c(Nc2ccccc2C(=O)NC(C)C)n1 [Example 14-2]
6.70 | – | 8.74 | – | 7.15 | 6.17 | COc1cc(N2CCN(C)CC2)ccc1Nc1ncc(Cl)c(Nc2ccccc2S(=O)(=O)NC(C)C)n1 [Example 19-5]
7.00 | 6.54 | 8.11 | 6.26 | – | – | COc1cc(N2CCC(N3CCOCC3)CC2)ccc1Nc1ncc(Cl)c(Nc2ccccc2S(=O)(=O)C(C)C)n1 [Example 28-13]
6.54 | 6.15 | 7.82 | 5.89 | – | – | CNS(=O)(=O)c1ccccc1Nc1nc(Nc2cc(OC3CCN(C)CC3)ccc2OC)ncc1Br [Example 3-76]
6.96 | 6.22 | 7.96 | 6.00 | – | – | COc1cc(N2CCC(O)CC2)ccc1Nc1ncc(Cl)c(Nc2ccccc2S(=O)(=O)C(C)C)n1 [Example 28-16]
6.52 | 6.59 | 7.77 | 7.00 | – | – | CCCS(=O)(=O)c1ccccc1Nc1nc(Nc2cc(N3CCOCC3)ccc2OC)ncc1Cl [Example 26-17]
7.00 | 6.89 | – | 6.62 | – | – | CNS(=O)(=O)c1ccccc1Nc1nc(Nc2cc(N3CCN(C(C)=O)CC3)ccc2OC)ncc1Br [Example 3-34]
– | 6.00 | 8.68 | 6.52 | – | – | CNC(=O)c1ccccc1Nc1nc(Nc2cc(N3CCN(C(C)=O)CC3)ccc2OC)ncc1Cl [Example 7-30]
